# Key:
# serotonin reuptake sites = target: T1, serotonin reuptake sites (Rattus norvegicus, UniProt P31652); assay: Determination of the affinity for serotonin reuptake sites ([3H]-paroxetine competition); type: binding; details: frontal cortex membranes, 1.0 nM [3H]-paroxetine, 2 hours at 25° C., pH 7.4; read-out: pKi, serotonin reuptake sites (converted)
# T1 construct: The membranes are prepared from frontal cortex of rate; from tissue; host or cells: frontal cortex membranes (rat, printed 'rate')
# T1 sequence (P31652 whole entry): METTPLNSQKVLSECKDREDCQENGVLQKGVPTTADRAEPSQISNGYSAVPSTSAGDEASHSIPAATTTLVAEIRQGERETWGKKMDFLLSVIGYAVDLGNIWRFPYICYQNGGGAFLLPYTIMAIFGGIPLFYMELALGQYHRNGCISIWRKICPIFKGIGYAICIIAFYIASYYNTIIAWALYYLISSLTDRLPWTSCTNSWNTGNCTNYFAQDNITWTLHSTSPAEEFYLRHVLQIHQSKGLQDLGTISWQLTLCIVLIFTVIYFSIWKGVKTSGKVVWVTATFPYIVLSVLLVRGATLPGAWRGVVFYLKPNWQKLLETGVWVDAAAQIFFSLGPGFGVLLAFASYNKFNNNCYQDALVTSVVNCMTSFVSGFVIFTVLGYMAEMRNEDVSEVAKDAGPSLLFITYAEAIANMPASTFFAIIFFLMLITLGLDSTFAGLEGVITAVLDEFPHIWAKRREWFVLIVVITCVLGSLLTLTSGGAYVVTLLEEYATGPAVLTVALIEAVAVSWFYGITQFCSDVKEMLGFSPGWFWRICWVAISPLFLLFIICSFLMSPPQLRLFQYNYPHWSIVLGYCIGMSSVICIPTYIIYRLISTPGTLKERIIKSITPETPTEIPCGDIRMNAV
# Experimental: Determination of the affinity for serotonin reuptake sites
# The incubation buffer contains […] TRIS-HCl (pH 7.4), 120 mM NaCl and 5 mM KCl. The non-specific binding is determined using 10 μM citalopram. At the end of the incubation, the incubation medium is filtered and washed three times with 5 ml of cooled buffer. The radioactivity retained on the filters is determined by liquid scintillation counting. The binding isotherms are analysed by non-linear regression to determine the IC50 values. Those values are converted into a dissociation constant (Ki) using the Cheng-Prusoff equation: […]
# (§1) The results are expressed in pKi (-log Ki).
# mouse [1] = assay: Suspension-by-the-tail test in the mouse; type: in vivo; details: for Immobility: 6 minutes of the test
# Description: Suspension-by-the-tail test in the mouse
# In this variation of the forced swimming test, the state of despair is induced in the mouse by suspending it head down by its tail. Placed in that uncomfortable situation, the animal struggles vigorously to start with and then adopts an immobile posture. Antidepressant products reduce the duration of immobility of the animal.
# The animals are male NMRI (IFFA-CREDO) mice (22-26 g) which are housed, in groups of 20, in transparent plastic cages (59×38×20 cm) on sawdust, with food and drink as desired. On the day of the test, each mouse is placed in a separate cage as soon as it has been treated (sub-cutaneously) with the product or the solvent. Thirty minutes later, the animal is suspended by the tail from a hook using an adhesive tape attached to the tail. The hook is connected to a tension sensor which transmits all the animal's movements to a central processor ([…]-TST 1 system, ITEM-LABO, France). The total duration (sec.) of immobility of the animal during the 6 minutes of the test is recorded automatically.
# The differences in the duration of immobility between the treated groups (product) and the control group (solvent) are analysed statistically by ANOVA followed by Dunnett's test, wherein p<0.05.
# mouse [2] = assay: Forced swimming test in the mouse; type: in vivo; details: for Duration of immobility: last 4 minutes (T2-T6)
# Experimental: Forced swimming test in the mouse (Porsolt et al., 1977)
# The forced swimming test in the mouse consists of inducing a state of despair in the animal by placing it for 6 minutes in a cylinder full of water, from which it cannot escape. The naive animal struggles vigorously for the first few minutes and then adopts an immobile posture for the last few minutes of the test. Antidepressant products reduce the duration of immobility of the animal during the test.
# the animals are male CD (IFFA-CREDO) mice (22-26 g) which, on the day before the test, are placed individually in transparent plastic cages (25×15×14 cm) on sawdust, with food and drink as desired. On the day of the test, 30 minutes after treatment (product or solvent, administered sub-cutaneously), each mouse is plunged for 6 minutes (T0-T6) in a glass cylinder (23.5 cm in height, 11.5 cm in diameter) filled to a height of 6 centimeters with water maintained at 24±0.5° C. The total duration of immobility (sec.) of the animal during the last 4 minutes of the test (T2-T6) is observed: a mouse is considered to be immobile when it is floating in the water, making only small movements to keep its head out of the water.
# The differences between the treated groups (product) and the control group (solvent) are evaluated statistically by variance analysis followed by Dunnett's test wherein p<0.05.
# [3] = target: T2, noradrenaline reuptake sites (Rattus norvegicus, UniProt Q63380); assay: Determination of the affinity for noradrenaline reuptake sites ([3H]-nisoxetine competition); type: binding; details: frontal cortex membranes, 2 nM [3H]-nisoxetine, 4 hours at 4° C., pH 7.4; read-out: pKi, noradrenaline reuptake sites (converted)
# T2 construct: The membranes are prepared from frontal cortex of rat; from tissue; host or cells: rat frontal cortex membranes
# T2 sequence (Q63380 1-617): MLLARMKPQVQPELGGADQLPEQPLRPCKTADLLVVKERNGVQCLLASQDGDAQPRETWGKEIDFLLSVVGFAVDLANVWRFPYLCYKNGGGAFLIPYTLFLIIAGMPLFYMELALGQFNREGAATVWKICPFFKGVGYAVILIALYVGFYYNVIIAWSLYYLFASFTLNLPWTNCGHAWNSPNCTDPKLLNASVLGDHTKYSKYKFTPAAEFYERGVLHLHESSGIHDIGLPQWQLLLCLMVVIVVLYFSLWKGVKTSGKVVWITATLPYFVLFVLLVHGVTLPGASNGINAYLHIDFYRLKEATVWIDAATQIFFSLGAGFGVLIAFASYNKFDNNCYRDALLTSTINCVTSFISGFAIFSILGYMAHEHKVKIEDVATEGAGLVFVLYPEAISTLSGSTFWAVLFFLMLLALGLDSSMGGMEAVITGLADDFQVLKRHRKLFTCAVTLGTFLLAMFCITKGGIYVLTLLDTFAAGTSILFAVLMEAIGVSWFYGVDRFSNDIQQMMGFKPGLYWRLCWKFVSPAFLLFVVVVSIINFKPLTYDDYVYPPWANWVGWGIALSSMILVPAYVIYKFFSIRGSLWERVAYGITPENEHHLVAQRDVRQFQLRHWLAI
# Experimental: The binding isotherms are analysed by non-linear regression to determine the IC50 values. Those values are converted into a dissociation constant (Ki) using the Cheng-Prusoff equation: […]
# as §1
structure (smiles),measurement,setting,value
"COc1ccc2c(c1)C(CN(C)C)(C1(O)CCCCC1)C2 (single isomer, unassigned; (-)) [Example 8, (-)-Isomer of 1-(N,N-dimethylaminomethyl)-1-(1-hydroxycyclohex-1-yl)-5-methoxybenzocyclobutane]",Ki,serotonin reuptake sites,0.002 µM
"COc1ccc2c(c1)C(CN(C)C)(C1(O)CCCCC1)C2 (stereo not drawn) [Example 3, 1-(N,N-Dimethylaminomethyl)-1-(1-hydroxycyclohex-1-yl)-5-methoxybenzocyclobutane]","Immobility, %/control",mouse [1]; 0.63 mg/kg s.c.,88%
same,Immobility,mouse [1]; 0.63 mg/kg s.c.,70.4 ± 13.5 s
same,"Immobility, %/control",mouse [1]; 2.5 mg/kg s.c.,51%
same,Immobility,mouse [1]; 2.5 mg/kg s.c.,41.1 ± 9.6 s
same,"Immobility, %/control",mouse [1]; 10.0 mg/kg s.c.,35%
same,Immobility,"mouse [1]; 10.0 mg/kg s.c., * p < 0.05",27.8 ± 9.6 s
"COc1ccc2c(c1)CC2(CN(C)C)C1(O)CCCCC1 (stereo not drawn) [Example 4, 1-(N,N-Dimethylaminomethyl)-1-(1-hydroxycyclohex-1-yl)-4-methoxybenzocyclobutane]","Duration of immobility, %/control",mouse [2]; 0.63 mg/kg s.c.,94%
same,Duration of immobility,mouse [2]; 0.63 mg/kg s.c.,157.3 ± 18.9 s
same,"Duration of immobility, %/control",mouse [2]; 2.5 mg/kg s.c.,61%
same,Duration of immobility,mouse [2]; 2.5 mg/kg s.c.,101.6 ± 57.3 s
same,"Duration of immobility, %/control",mouse [2]; 10.0 mg/kg s.c.,4%
same,Duration of immobility,"mouse [2]; 10.0 mg/kg s.c., * p < 0.05",6.1 ± 6.1 s
"COc1cccc2c1C(CN(C)C)(C1(O)CCCCC1)C2 (stereo not drawn) [Example 9, 1-(N,N-Dimethylaminomethyl)-1-(1-hydroxycyclohex-1-yl)-6-methoxybenzocyclobutane]",Ki,[3],0.0562 µM
"CNCCC(Oc1ccc(C(F)(F)F)cc1)c1ccccc1 (stereo not drawn) [fluoxetine, reference compound]","Duration of immobility, %/control",mouse [2]; 2.5 mg/kg s.c.,94%
same,"Duration of immobility, %/control",mouse [2]; 10.0 mg/kg s.c.,75%
same,"Duration of immobility, %/control",mouse [2]; 40.0 mg/kg s.c.,73%
same,"Immobility, %/control",mouse [1]; 40.0 mg/kg s.c.,91%
same,Immobility,mouse [1]; 40.0 mg/kg s.c.,69.9 ± 17.8 s
same,"Immobility, %/control",mouse [1]; 80.0 mg/kg s.c.,110%
same,Immobility,mouse [1]; 80.0 mg/kg s.c.,84.3 ± 12.4 s

# Source: patent US6107345A, “Benzocyclobutane compounds” (Adir et Compagnie, priority 1998, dated 2000)
